{"source": "paper PMC2753476", "about": "(Proteins, 2009)", "target": "T1, glOTC (Giardia duodenalis, UniProt O76458)", "T1 sequence (O76458 1-327)": "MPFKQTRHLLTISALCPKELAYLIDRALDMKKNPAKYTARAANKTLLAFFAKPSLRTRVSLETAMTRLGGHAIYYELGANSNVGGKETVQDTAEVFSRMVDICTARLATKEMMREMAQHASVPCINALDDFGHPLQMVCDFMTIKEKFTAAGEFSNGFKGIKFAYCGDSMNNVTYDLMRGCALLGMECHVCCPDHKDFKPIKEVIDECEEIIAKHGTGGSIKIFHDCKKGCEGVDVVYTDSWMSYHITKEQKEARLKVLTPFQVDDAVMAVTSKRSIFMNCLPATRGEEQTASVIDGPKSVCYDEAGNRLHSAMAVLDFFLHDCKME", "test": "coupled spectrophotometric assay at […] nm", "type": "biochemical", "data": [{"smiles": "N[C@@H](CCCNC(=O)CP(=O)(O)O)C(=O)O", "note": "[PALO, N-phosphonoacetyl-L-ornthine]", "values": [{"measurement": "Ki", "result": "25 ± 9", "unit": "nM"}]}]}
